Test results taken from US20040039023A1, “Therapeutic agents” (priority 2000, published 2004).

Tests used:
5-HT1A receptors = molecular target: T1, 5-HT1A receptors (Rattus norvegicus, UniProt P19327); experiment: Inhibition of [3H]8-OH-DPAT binding to 5-HT1A receptors, rat hippocampal tissue; details: ligand [3H]8-OH-DPAT 2 nM
T1 construct: Hippocampal tissue from the brains of male Charles River CD rats; from tissue; host or cells: rat hippocampus membrane homogenate
T1 sequence (P19327 1-422): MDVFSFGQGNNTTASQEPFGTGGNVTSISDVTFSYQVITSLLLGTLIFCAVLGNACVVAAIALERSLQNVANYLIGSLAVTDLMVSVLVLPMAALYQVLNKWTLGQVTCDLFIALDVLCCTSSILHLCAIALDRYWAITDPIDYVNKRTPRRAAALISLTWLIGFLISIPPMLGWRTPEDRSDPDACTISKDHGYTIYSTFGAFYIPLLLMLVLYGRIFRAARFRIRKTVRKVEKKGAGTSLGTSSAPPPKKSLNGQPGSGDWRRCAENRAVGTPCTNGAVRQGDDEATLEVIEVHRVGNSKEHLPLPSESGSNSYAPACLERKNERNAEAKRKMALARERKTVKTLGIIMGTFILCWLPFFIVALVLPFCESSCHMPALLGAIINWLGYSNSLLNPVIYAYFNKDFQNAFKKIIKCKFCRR
Procedure: Hippocampal tissue from the brains of male Charles River CD rats weighing between 150-250 g were homogenised in ice-cold 50 mM Tris-HCl buffer (pH 7.7) when measured at 25° C., 1:40 w/v) and centrifuged at 30,000 g at 4° C. for 10 minutes. The pellet was rehomogenised in the same buffer, incubated at 37° C. for 10 minutes and centrifuged at 30,000 g at 4° C. for 10 minutes. The final pellet was resuspended in 50 mM Tris-HCl buffer (pH 7.7) containing 4 mM CaCl2, 0.1% L-ascorbic acid and 10 μM pargyline hydrochloride (equivalent to 6.25 mg wet weight of tissue/ml) and used immediately in the binding assay. Aliquots (400 μl; equivalent to 2.5 mg wet weight of tissue/tube) of this suspension were added to tubes containing the ligand (50 μl; 2 nM) and distilled water (50 μl; total binding) or 5-HT (50 μl; 10 μM; non-specific binding) or test compound (50 μl; at a single concentration of 10^−6 M or at 10 concentrations ranging from 10^−11-10^−3 M). The ligand was [^3H]8-hydroxy-2-(dipropylamino)tetralin ([^3H]8-OH-DPAT) and the mixture was incubated at 25° C. for 30 minutes before the incubation was terminated by rapid filtration.
(§1) The filters were washed with ice-cold Tris-HCl buffer and dried. The filters were punched out into vials, scintillation fluid added and radioactivity determined by liquid scintillation counting. The percentage displacement of specific binding of the tritiated ligand was calculated for the single concentration (10^−6 M) of test compound. Displacement curves were then produced for those compounds which displaced ≧50% of specific binding of the tritiated ligand at 10^−6 M using a range of concentrations of the compound. The concentration which gave 50% inhibition of specific binding (IC50) was obtained from the curve. The inhibition coefficient Ki was then calculated using the formula [formula]
(§2) in which [ligand] is the concentration of the tritiated ligand used and KD is the equilibrium dissociation constant for the ligand.

α1-adrenoceptors = experiment: Inhibition of [7-methoxy-3H]prazosin binding to α1-adrenoceptors, rat whole cortical tissue; details: ligand [7-methoxy-3H]prazosin 0.1 nM
Procedure: Whole cortical tissue from the brains of male Charles River CD rats weighing between 150-250 g were homogenised in ice-cold 50 mM Tris-HCl, pH 7.6 (at 25° C.; 1:40 w/v) and centrifuged at 1000 g at 4° C. for 10 minutes. The supernatant was centrifuged at 30,000 g at 4° C. for 10 minutes. The pellet was rehomogenised in 50 mM Tris-HCl, pH 7.6 (1:40 w/v) and centrifuged at 30,000 g at 4° C. for 10 minutes. The final pellet was resuspended in 50 mM Tris-HCl, pH 7.6 (equivalent to 12.5 mg wet weight of tissue/ml) and used immediately in the binding assay. Aliquots (400 μl; equivalent to 5 mg wet weight of tissue/tube) of this suspension were added to tubes containing the ligand (50 μl; 0.1 nM) and distilled water (50 μl; total binding) or phentolamine (50 μl; 5 μM; non-specific binding) or test compound (50 μl; at a single concentration of 10^−6M or at 10 concentrations ranging from 10^−11-10^−3M). The ligand was [7-methoxy-^3H]prazosin and the mixture was incubated at 30° C. for 30 minutes before the incubation was terminated by rapid filtration.
as §1, §2

[1] = system: apomorphine-induced climbing in mice; experiment: Antagonism of apomorphine-induced climbing in mice; type: in vivo; details: male mice; for ED50: Mus musculus, po 30 minutes before apomorphine 0.88 mg/kg sc, free base equivalents, read-out: ED50 (dose causing 50% of the control score); for duration: po, antagonism of apomorphine-induced climbing
Procedure: Antagonism of Apomorphine-Induced Climbing in Mice Groups of 10 male mice weighing […] (max. range 10 g) were treated with test compound or control vehicle by po administration. 30 minutes later, mice were injected subcutaneously with apomorphine (0.88 mg/kg). Immediately after the apomorphine injection the mice were placed in the test cages and the climbing behaviour of each mouse was assessed at 10 and 20 minutes on a simple 0-2 ranking scale. The ED50 values (dose causing 50% of the control score) for the test compounds and 95% confidence limits were calculated.

D2 dopamine receptors = molecular target: T2, D2 dopamine receptors (Rattus norvegicus, UniProt P61169); experiment: Inhibition of tritiated (S)-sulpiride binding to D2 dopamine receptors, rat striatal tissue; details: ligand tritiated (S)-sulpiride 1 nM
T2 construct: Striatal tissue from the brains of male Charles River CD rats; from tissue; host or cells: rat striatum membrane homogenate
T2 sequence (P61169 whole entry): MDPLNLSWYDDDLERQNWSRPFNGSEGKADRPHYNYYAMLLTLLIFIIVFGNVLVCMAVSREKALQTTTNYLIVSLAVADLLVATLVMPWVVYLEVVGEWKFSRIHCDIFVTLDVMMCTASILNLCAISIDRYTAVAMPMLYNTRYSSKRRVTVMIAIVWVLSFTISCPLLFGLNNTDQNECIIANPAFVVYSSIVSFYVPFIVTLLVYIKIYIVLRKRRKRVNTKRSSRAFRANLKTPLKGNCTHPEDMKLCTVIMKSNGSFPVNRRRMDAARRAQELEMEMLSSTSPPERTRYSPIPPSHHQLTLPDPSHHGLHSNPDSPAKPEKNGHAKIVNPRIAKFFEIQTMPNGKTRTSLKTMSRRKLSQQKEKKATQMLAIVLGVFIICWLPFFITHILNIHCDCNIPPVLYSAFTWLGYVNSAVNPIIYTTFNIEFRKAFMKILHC
Procedure: Striatal tissue from the brains of male Charles River CD rats weighing between 140-250 g were homogenised in ice-cold 50 mM Tris-HCl buffer (pH 7.7 when measured at 25° C.) and centrifuged at 40,000 g for 10 minutes. The pellet was resuspended in Tris salts buffer (50 mM Tris-HCl buffer containing 120 mM NaCl, 5 mM KCl, 2 mM CaCl2 and 1 mM MgCl2 with the addition of 6 mM ascorbic acid; pH 7.7 when measured at 25° C.), and again centrifuged at 40,000 g for 10 minutes. The final pellet was stored at −80° C. Before each test the pellet was resuspended in Tris salts buffer (equivalent to 2 mg wet weight of tissue/ml). […]
The filters were washed with ice-cold Tris-HCl buffer and dried. The filters were punched out in to vials, scintillation fluid added and were left for about 20 hours before being counted by scintillation spectrophotometry. The percentage displacement of specific binding of the tritiated ligand was calculated for the single concentration (10^−6 M) of test compound. […] The inhibition coefficient Ki was then calculated using the formula [formula] […]

Row | Ki (5-HT1A receptors) [nM] | Ki (α1-adrenoceptors) [nM] | Ki (D2 dopamine receptors) [nM] | melting point [°C] | Structure (SMILES) | ED50 [1] [mg/kg] | duration [1]
1 | 22 | 53 |  |  | COc1ccccc1N1CCC(CNC[C@H]2COc3ccc(Cl)cc3O2)CC1 [Comparative Example A, (S)-(−)-N-(7-Chloro-1,4-benzodioxan-2-ylmethyl)-1-(1-(2-methoxyphenyl)piperid-4-yl)methylamine, reference compound] | 5 | [>6 h]
2 | 12 | 101 | 11 | 84 to 86 | Oc1ccccc1N1CCC(CNC[C@H]2COc3ccc(Cl)cc3O2)CC1 [Example 1, (S)-(−)-2-{4-[N-(7-chloro-2,3-dihydro-1,4-benzodioxin-2-ylmethyl)aminomethyl]piperidino}phenol] | 3 | [>6 h]
3 | 37 | 573 | 25 |  | Oc1ccccc1N1CCC(CNC[C@H]2COc3ccc(C(F)(F)F)cc3O2)CC1 [Example 2, (S)-(−)-2-{4-[N-(7-trifluoromethyl-2,3-dihydro-1,4-benzodioxin-2-ylmethyl)aminomethyl]piperidino}phenol] | 0.6 | [>4 h]
